According to patent US6479487B1, “6, 9-disubstituted 2-[trans-(4-aminocyclohexyl)amino] purines” (Aventis Pharmaceuticals Inc., priority 1998, dated 2002):
pIC50: −log10 of the molar value. “And” between values parts separate entries of the source, which are not always exact repeats. Equal entries are not always repeated. Structures can show the parent of a compound that is named as a salt. Where two headings read alike, the source gives them in different places.

What was measured:
cdk4/cyclin D1 = biological target: T1, cdk4/cyclin D1 (Homo sapiens, UniProt P11802); experiment: Cyclin-dependent Kinase 4 Assay (cdk4/cyclin D1, GST-Rb substrate); format: biochemical; conditions: cdk4/cyclin D1 insect cell lysate, 10 μM ATP, 30 min at 37° C., several values = separate determinations, read-out: CDK4 Inhibition IC50
T1 construct: made in house; host or cells: Sf9 insect cells (Bac-to-Bac baculovirus, pFastBac)
In short: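 Insect-cell lysate of coexpressed cdk4/cyclin D1 (0.1 μg) acts on GST-Rb (0.5 μg) bound to glutathione-Sepharose, in 50 mM HEPES pH 7.5, 10 mM MgCl2, 1 mM EGTA. Reaction runs 30 min at 37 °C, then is stopped by filtration and TNEN washes. Rb phosphorylation read by scintillation counting; IC50 derived.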

MDA-MB-435 = experiment: In vitro tumor cell proliferation, MDA-MB-435; format: cell-based; conditions: values given with an undefined *, read-out: In vitro Tumor Cell Proliferation (IC50, μM) Breast MDA-MB-435
In short: (§1)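 Growth was quantified by sulforhodamine B staining of TCA-fixed cells after 3 days of drug plus 4 more days with fresh drug, or by CyQUANT after 3 days of drug and freezing at −80° C. Counted viable cells were plated and incubated overnight at 37° C before drug.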

DU145 = experiment: In vitro tumor cell proliferation, DU145; format: cell-based, human; conditions: many values given with an undefined *, read-out: In vitro Tumor Cell Proliferation (IC50, μM) Prostate DU145
In short: as §1

A549 = experiment: In vitro tumor cell proliferation, A549; format: cell-based, human; conditions: many values given with an undefined *, read-out: In vitro Tumor Cell Proliferation (IC50, μM) Lung A549
In short: as §1

DMS-114 = experiment: In vitro tumor cell proliferation, DMS-114; format: cell-based, human; conditions: many values given with an undefined *, read-out: In vitro Tumor Cell Proliferation (IC50, μM) Lung DMS-114
In short: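 Human small cell lung carcinoma DMS-114 cells plated overnight, then drug-treated for 3 days, medium and drug renewed, and incubated 4 more days. Growth read by sulforhodamine B staining after TCA fixation; alternatively by CyQUANT after 3 days' drug exposure and freezing at −80 °C.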

cdk2/cyclin E = biological target: T2, cdk2/cyclin E (Homo sapiens, UniProt P24941); experiment: Cyclin-Dependent Kinase 2 Assay (cdk2/cyclin E, GST-Rb substrate); format: biochemical; conditions: recombinant cdk2/cyclin E, 10 μM ATP, 30 min at 30° C., several values in a cell = separate determinations, read-out: CDK-2 Inhibition IC50
T2 construct: made in house; host or cells: insect cells (baculovirus co-infection)
Experimental: Substrate: GST-Rb as described above for cdk4/cyclin D1
Assay conditions for cdk2/cyclin E were identical to those for cdk4/cyclin D1 including the substrate. The concentration of recombinant cdk2/cyclin E in the assay was 0.1 μg per 100 μl assay. Incubation was for 30 min at 30° C.

HT-29 = experiment: In vitro tumor cell proliferation, HT-29; format: cell-based, human; conditions: many values given with an undefined *, read-out: In vitro Tumor Cell Proliferation (IC50, μM) Colon HT-29
In short: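 HT-29 cells seeded overnight at 37° C, then exposed to drug for 3 days, refed with fresh drug-containing medium for 4 more days. Proliferation read by sulforhodamine B staining after TCA fixation; alternatively by CyQUANT after freezing plates at −80° C following 3 days' drug exposure.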

MDA-MB-231 = experiment: In vitro tumor cell proliferation, MDA-MB-231; format: cell-based, human; conditions: sulforhodamine B or CyQUANT assay, many values given with an undefined *, read-out: In vitro Tumor Cell Proliferation (IC50, μM) Breast MDA-MB-231
In short: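 Cells plated overnight at 37 °C, then exposed to drug for 3 days, refed with fresh drug and incubated 4 more days. Read-out by sulforhodamine B staining after TCA fixation; alternatively, CyQUANT after 3-day drug exposure and freezing at −80 °C.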

PC-3 = experiment: In vitro tumor cell proliferation, PC-3; format: cell-based, human; conditions: many values given with an undefined *, read-out: In vitro Tumor Cell Proliferation (IC50, μM) Prostate PC-3
In short: as §1

Colo-205 = experiment: In vitro tumor cell proliferation, Colo-205; format: cell-based; conditions: values given with an undefined *, read-out: In vitro Tumor Cell Proliferation (IC50, μM) Colon Colo-205
In short: as §1

[1] = Homo sapiens, MDA-MB-435, MDA-MB-435
[2] = Homo sapiens, MDA-MB-231, MDA-MB-231
[3] = Homo sapiens, COLO 205, Colo-205

T1 sequence (P11802 whole entry): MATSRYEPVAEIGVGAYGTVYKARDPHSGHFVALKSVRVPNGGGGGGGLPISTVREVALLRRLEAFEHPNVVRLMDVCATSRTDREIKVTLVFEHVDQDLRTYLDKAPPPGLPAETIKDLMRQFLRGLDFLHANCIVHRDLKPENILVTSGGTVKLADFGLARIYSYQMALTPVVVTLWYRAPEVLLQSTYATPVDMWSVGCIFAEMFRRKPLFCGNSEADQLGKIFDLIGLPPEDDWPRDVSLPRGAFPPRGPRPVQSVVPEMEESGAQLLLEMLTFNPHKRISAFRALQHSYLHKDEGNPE
T1 sequence (P24385 whole entry partner): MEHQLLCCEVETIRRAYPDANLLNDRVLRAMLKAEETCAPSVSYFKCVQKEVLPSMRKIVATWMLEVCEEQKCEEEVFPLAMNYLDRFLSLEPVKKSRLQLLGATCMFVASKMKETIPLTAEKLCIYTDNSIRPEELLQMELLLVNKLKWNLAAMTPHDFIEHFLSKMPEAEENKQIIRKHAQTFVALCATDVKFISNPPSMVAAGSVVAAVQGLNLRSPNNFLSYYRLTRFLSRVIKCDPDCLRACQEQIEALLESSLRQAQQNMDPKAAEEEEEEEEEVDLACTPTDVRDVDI

SMILES | pIC50 (cdk4/cyclin D1) | IC50 (MDA-MB-435; [1]) [µM] | IC50 (MDA-MB-435; MDA-MB-435, trihydrochloride) | IC50 (DU145; DU145, trihydrochloride) | IC50 (DU145; Homo sapiens, DU-145, DU145) [µM] | IC50 (A549; A549, trihydrochloride) | IC50 (A549; Homo sapiens, A549, A549) [µM] | IC50 (DMS-114; DMS-114, trihydrochloride) | IC50 (DMS-114; Homo sapiens, DMS-114, DMS-114) [µM] | pIC50 (cdk2/cyclin E) | IC50 (HT-29; HT-29, trihydrochloride) | IC50 (HT-29; Homo sapiens, HT-29, HT-29) [µM] | IC50 (MDA-MB-231; [2]) [µM] | IC50 (MDA-MB-231; MDA-MB-231, trihydrochloride) | IC50 (PC-3; Homo sapiens, PC-3, PC-3) [µM] | IC50 (Colo-205; Colo-205, trihydrochloride) | IC50 (Colo-205; [3]) [µM] | IC50 (PC-3; PC-3, trihydrochloride) [µM] | pIC50 (cdk2/cyclin E; trihydrochloride) | IC50 (PC-3; PC-3) [µM]
N[C@H]1CC[C@H](Nc2nc(NCC3CCN(Cc4ccccc4)CC3)c3ncn(C4CCCC4)c3n2)CC1 [Example 147-ac, 2-[Trans-(4-aminocyclohexyl)amino]-6-[4-(1-benzyl)piperidinylmethylamino]-9-cyclopentylpurine trihydrochloride] | 5.48 and 5.92 | 0.97 | 1.1 µM | 0.66 µM | 0.71 | 0.62 µM | 0.47 | 1 µM | 1.4 | 6.77 and 6.43 and 6.28 and 6.40 | 0.93 µM | 1 | 0.79 | 0.75 µM | 0.78 | 0.66 µM | 0.61 | 0.82 | – | –
N[C@H]1CC[C@H](Nc2nc(NC3CCN(Cc4cccc(Oc5ccccc5)c4)CC3)c3ncn(C4CCCC4)c3n2)CC1 [Example 147-ad, 2-[Trans-(4-aminocyclohexyl)amino]-6-[4-[1-(3-phenoxybenzyl)]piperidinylamino]-9-cyclopentylpurine trihydrochloride] | 5.52 and 5.49 | 0.87 | 1 µM | 0.62 µM | 0.54 | 0.43 µM | 0.39 | 0.62 µM | 0.82 | 6.55 and 6.72 | 0.7 µM | 0.79 | 0.64 | – | 0.48 | 0.58 µM | 0.53 | 0.86 | – | –
N[C@H]1CC[C@H](Nc2nc(NC3CCN(Cc4cc(C(F)(F)F)cc(C(F)(F)F)c4)CC3)c3ncn(C4CCCC4)c3n2)CC1 [Example 147-d, 2-[Trans-(4-aminocyclohexyl)amino]-6-[4-[1-[3,5-bis(trifluoromethyl)benzyl]]piperidinylamino]-9-cyclopentylpurine trihydrochloride] | 4.19 | – | 0.69 µM and 0.94 µM | 0.69 µM and 0.58 µM | – | 0.23 µM and 0.25 µM | – | 0.34 µM and 0.36 µM | – | – | 0.44 µM and 0.34 µM | – | – | 0.47 µM and 0.42 µM | – | 0.38 µM and 0.52 µM | – | – | 6.05 and 6.28 and 6.12 | 0.66
N[C@H]1CC[C@H](Nc2nc(NC3CCN(Cc4cc(F)cc(F)c4)CC3)c3ncn(C4CCCC4)c3n2)CC1 [Example 147-g, 2-[Trans-(4-aminocyclohexyl)amino]-6-[4-1 1-(3.5-difluorobenzyl)]piperidinylamino]-9-cyclopentylpurine trihydrochloride] | 5.46 and 5.70 | 0.3 | 0.41 µM | 0.25 µM | 0.22 | 0.14 µM | 0.19 | 0.26 µM | 0.32 | 6.48 and 6.54 | 0.29 µM | – | 0.29 | – | 0.21 | 0.13 µM | 0.18 | 0.39 | – | –

Continued by falling IC50 (MDA-MB-435; [1]), values first:

pIC50 (cdk4/cyclin D1) | IC50 (MDA-MB-435; [1]) [µM] | IC50 (MDA-MB-435; MDA-MB-435, trihydrochloride) | IC50 (DU145; DU145, trihydrochloride) | IC50 (DU145; Homo sapiens, DU-145, DU145) [µM] | IC50 (A549; A549, trihydrochloride) | IC50 (A549; Homo sapiens, A549, A549) [µM] | IC50 (DMS-114; DMS-114, trihydrochloride) | IC50 (DMS-114; Homo sapiens, DMS-114, DMS-114) [µM] | pIC50 (cdk2/cyclin E) | IC50 (HT-29; HT-29, trihydrochloride) | IC50 (HT-29; Homo sapiens, HT-29, HT-29) [µM] | IC50 (MDA-MB-231; [2]) [µM] | IC50 (MDA-MB-231; MDA-MB-231, trihydrochloride) | IC50 (PC-3; Homo sapiens, PC-3, PC-3) [µM] | IC50 (Colo-205; Colo-205, trihydrochloride) | IC50 (Colo-205; [3]) [µM] | IC50 (PC-3; PC-3, trihydrochloride) [µM] | pIC50 (cdk2/cyclin E; trihydrochloride) | IC50 (PC-3; PC-3) [µM] | SMILES
5.62 and 5.35 | 0.99 | 0.95 µM | 0.61 µM | 0.46 | 0.4 µM | 0.42 | 0.82 µM | 0.92 | 5.92 and 6.04 | 0.61 µM | 0.65 | 0.64 | 0.73 µM | 0.63 | 0.62 µM | 0.48 | 0.78 | – | – | N[C@H]1CC[C@H](Nc2nc(NC3CCN(Cc4ccccc4C(F)(F)F)CC3)c3ncn(C4CCCC4)c3n2)CC1 [Example 147-b, 2-[Trans-(4-aminocyclohexyl)amino]-6-[4-[1-(2-trifluoromethylbenzyl)]piperidinylamino]-9-cyclopentylpurine trihydrochloride]
5.35 and 5.57 | 0.84 | 0.91 µM | 0.6 µM | 0.59 | 0.39 µM | 0.33 | 0.64 µM | 0.74 | 6.60 and 6.05 | 0.62 µM | 0.73 | 0.62 | 0.7 µM | 0.69 | 0.45 µM | 0.43 | – | – | – | N[C@H]1CC[C@H](Nc2nc(NC3CCN(Cc4ccccc4OC(F)(F)F)CC3)c3ncn(C4CCCC4)c3n2)CC1 [Example 147-ab, 2-[Trans-(4-aminocyclohexyl)amino]-6-[4-[1-(2-trifluoromethoxybenzyl)]piperidinylamino]-9-cyclopentylpurine trihydrochloride]
5.57 and 5.34 | 0.62 | 0.6 µM | 0.41 µM | 0.35 | 0.3 µM | 0.35 | 0.5 µM | 0.58 | 6.47 and 6.64 and 6.34 | 0.3 µM | 0.59 | 0.58 | 0.3 µM | 0.47 | 0.32 µM | 0.34 | 0.35 | – | – | N[C@H]1CC[C@H](Nc2nc(NC3CCN(Cc4cccc(F)c4F)CC3)c3ncn(C4CCCC4)c3n2)CC1 [Example 147-e, 2-[Trans-(4-aminocyclohexyl)amino]-6-[4-1-(2,3-difluorobenzyl)]piperidinylamino]-9-cyclopentylpurine trihydrochloride]
6.17 and 6.22 | 0.33 | 0.34 µM | 0.3 µM | 0.21 | 0.24 µM | 0.18 | 0.32 µM | 0.3 | 6.25 and 6.57 and 6.35 | 0.3 µM | 0.32 | 0.23 | 0.27 µM | 0.22 | 0.2 µM | 0.19 | 0.33 | – | – | COc1cc(CN2CCC(Nc3nc(N[C@H]4CC[C@H](N)CC4)nc4c3ncn4C3CCCC3)CC2)cc(OC)c1 [Example 147-c, 2-[Trans-(4-aminocyclohexyl)amino]-6-[4-[1-(3,5-dimethoxybenzyl)]piperidinylamino-9-cyclopentylpurinetrihydrochloride]
